Patent US20070128217A1 (priority 2003, published 2007)

Key:
[1] = system: rabbit serum obtained by immunizing a rabbit with the SARS-CoV strain Frankfurt 1; assay type: binding; set-up: Binding of a rabbit serum to linear peptides / Binding of a rabbit serum to looped peptides / Rabbit serum linear peptides / Rabbit serum looped peptides / Binding of a rabbit serum to linear peptides of protein N of SARS-CoV Urbani (Rabbit serum linear peptides) / Binding of a rabbit serum to looped/cyclic peptides of protein N of SARS-CoV Urbani (Rabbit serum looped peptides): unit not given here
[2] = system: control sera (pooled serum of ten healthy LUMC hospital workers; commercial negative donor pooled serum from the Dutch bloodbank); assay type: binding, human; set-up: Binding of Control serum LUMC to linear peptides / Binding of Control serum Blood-bank to linear peptides / Binding of Control serum LUMC to looped peptides / Binding of Control Serum Blood-Bank to Looped peptides / Binding of Control serum LUMC to linear peptides of the protein M of SARS-CoV Urbani / Binding of Control serum Blood-bank to linear peptides of the protein M of SARS-CoV Urbani / Binding of Control serum LUMC to looped peptides of the protein M of SARS-CoV Urbani / Binding of Control Serum Blood-Bank to Looped peptides of the protein M of SARS-CoV Urbani: unit not given here
[3] = system: antibodies in sera from SARS patients (sera 1a, 1b, 2, 6, 37, 62, London, SARS-yellow, SARS-green); assay type: binding, human; set-up: Binding of serum 6 to linear peptides of protein X1 of SARS-CoV Urbani / Binding of serum 37 to linear peptides of protein X1 of SARS-CoV Urbani / Binding of serum 6 to looped/cyclic peptide (PEPSCAN-ELISA) / Binding of serum 37 to looped/cyclic peptide (PEPSCAN-ELISA) / Binding of serum 37 to looped/cyclic peptides of protein X1 of SARS-CoV Urbani / Binding of serum 6 to linear peptides of protein X2 / Binding of serum 37 to linear peptides of protein X2 / Binding of serum 37 to looped/cyclic peptides of protein X2 of SARS-CoV Urbani / Binding of serum 6 to linear peptides of protein M of SARS-CoV Urbani / Binding of serum 37 to linear peptides of protein M of SARS-CoV Urbani / Binding of serum 6 to looped/cyclic peptides of protein M of SARS-CoV Urbani / Binding of serum 37 to looped/cyclic peptides of protein M of SARS-CoV Urbani / Binding of serum 6 to linear peptides of protein X3 of SARS-CoV Urbani / Binding of serum 37 to linear peptides of protein X3 of SARS-CoV Urbani / Binding of serum 37 to looped/cyclic peptides of protein X3 of SARS-CoV Urbani / Binding of serum 6 to linear peptides of protein X4 of SARS-CoV Urbani / Binding of serum 37 to linear peptides of protein X4 of SARS-CoV Urbani / Binding of serum 37 to looped/cyclic peptides of protein X4 of SARS-CoV Urbani / Binding of serum 6 to linear peptides of protein X5 of SARS-CoV Urbani / Binding of serum 37 to linear peptides of protein X5 of SARS-CoV Urbani / Binding of serum 37 to looped/cyclic peptides of protein X5 of SARS-CoV Urbani / Binding of serum 6 to linear peptides of protein N of SARS-CoV Urbani / Binding of serum 37 to linear peptides of protein N of SARS-CoV Urbani / Binding of serum 6 to linear peptide (PEPSCAN-ELISA) / Binding of serum 1a to looped/cyclic peptides of protein N of SARS-CoV Urbani / Binding of serum 1b to looped/cyclic peptides of protein N of SARS-CoV Urbani / Binding of serum 2 to looped/cyclic peptides of protein N of SARS-CoV Urbani / Binding of serum 6 to looped/cyclic peptides of protein N of SARS-CoV Urbani / Binding of serum 37 to looped/cyclic peptides of protein N of SARS-CoV Urbani / Binding of serum 62 to looped/cyclic peptides of protein N of SARS-CoV Urbani / Binding of serum London to looped/cyclic peptides of protein N of SARS-CoV Urbani / Binding of serum SARS-green to looped/cyclic peptides of protein N of SARS-CoV Urbani: unit not given here

QITTDTGIENATFFI
0.9: Binding of serum 62 to looped/cyclic peptides of protein X1 of SARS-CoV Urbani [3]
0.4: Binding of serum 2 to linear peptides of protein X1 of SARS-CoV Urbani [3] | Binding of serum 6 to linear peptides of protein X1 of SARS-CoV Urbani [3] | Binding of serum 62 to linear peptides of protein X1 of SARS-CoV Urbani [3]
0.8: Binding of Control serum LUMC to looped peptides [2]
0.7: Binding of serum 1a to linear peptides of protein X1 of SARS-CoV Urbani [3] | Binding of serum 1a to looped/cyclic peptides of protein X1 of SARS-CoV Urbani [3] | Binding of serum 1b to looped/cyclic peptides of protein X1 of SARS-CoV Urbani [3]
0.3: Binding of serum London to linear peptides of protein X1 of SARS-CoV Urbani [3] | Binding of serum London to looped/cyclic peptides of protein X1 of SARS-CoV Urbani [3] | Binding of serum SARS-green to linear peptides of protein X1 of SARS-CoV Urbani [3] | Binding of serum SARS-yellow to linear peptides of protein X1 of SARS-CoV Urbani [3]
1.5: Binding of a rabbit serum to looped peptides [1]
1.0: Binding of serum 37 to looped/cyclic peptides of protein X1 of SARS-CoV Urbani [3]
0.5: Binding of Control Serum Blood-Bank to Looped peptides [2] | Binding of Control serum Blood-bank to linear peptides [2] | Binding of serum 6 to looped/cyclic peptides of protein X1 of SARS-CoV Urbani [3] | Binding of serum SARS-green to looped/cyclic peptides of protein X1 of SARS-CoV Urbani [3] | Binding of serum SARS-yellow to looped/cyclic peptides of protein X1 of SARS-CoV Urbani [3]
0.1: Binding of a rabbit serum to linear peptides [1]
0.6: Binding of Control serum LUMC to linear peptides [2] | Binding of serum 1b to linear peptides of protein X1 of SARS-CoV Urbani [3] | Binding of serum 2 to looped/cyclic peptides of protein X1 of SARS-CoV Urbani [3] | Binding of serum 37 to linear peptides of protein X1 of SARS-CoV Urbani [3]

QLESTQITTDTGIEN
0.6: Binding of a rabbit serum to looped peptides [1] | Binding of serum 1a to linear peptides of protein X1 of SARS-CoV Urbani [3]
0.5: Binding of Control Serum Blood-Bank to Looped peptides [2] | Binding of Control serum LUMC to linear peptides [2] | Binding of Control serum LUMC to looped peptides [2] | Binding of serum 1b to linear peptides of protein X1 of SARS-CoV Urbani [3] | Binding of serum 37 to linear peptides of protein X1 of SARS-CoV Urbani [3] | Binding of serum 37 to looped/cyclic peptides of protein X1 of SARS-CoV Urbani [3] | Binding of serum 62 to linear peptides of protein X1 of SARS-CoV Urbani [3] | Binding of serum 62 to looped/cyclic peptides of protein X1 of SARS-CoV Urbani [3]
0.4: Binding of serum 1a to looped/cyclic peptides of protein X1 of SARS-CoV Urbani [3] | Binding of serum 2 to linear peptides of protein X1 of SARS-CoV Urbani [3] | Binding of serum 6 to linear peptides of protein X1 of SARS-CoV Urbani [3] | Binding of serum SARS-green to looped/cyclic peptides of protein X1 of SARS-CoV Urbani [3] | Binding of serum SARS-yellow to linear peptides of protein X1 of SARS-CoV Urbani [3] | Binding of serum SARS-yellow to looped/cyclic peptides of protein X1 of SARS-CoV Urbani [3]
0.1: Binding of a rabbit serum to linear peptides [1]
0.3: Binding of Control serum Blood-bank to linear peptides [2] | Binding of serum 1b to looped/cyclic peptides of protein X1 of SARS-CoV Urbani [3] | Binding of serum 2 to looped/cyclic peptides of protein X1 of SARS-CoV Urbani [3] | Binding of serum London to linear peptides of protein X1 of SARS-CoV Urbani [3]
0.2: Binding of serum 6 to looped/cyclic peptides of protein X1 of SARS-CoV Urbani [3] | Binding of serum London to looped/cyclic peptides of protein X1 of SARS-CoV Urbani [3] | Binding of serum SARS-green to linear peptides of protein X1 of SARS-CoV Urbani [3]

QLLEQWNLVIGFLFL
0.4: Binding of serum 1b to linear peptides of protein M of SARS-CoV Urbani [3] | Binding of serum 2 to looped/cyclic peptides of protein M of SARS-CoV Urbani [3] | Binding of serum 6 to linear peptides of protein M of SARS-CoV Urbani [3] | Binding of serum 62 to looped/cyclic peptides of protein M of SARS-CoV Urbani [3] | Binding of serum London to linear peptides of protein M of SARS-CoV Urbani [3]
0.3: Binding of Control serum LUMC to linear peptides of the protein M of SARS-CoV Urbani [2] | Binding of serum SARS-green to looped/cyclic peptides of protein M of SARS-CoV Urbani [3]
0.0: Rabbit serum looped peptides [1] | Binding of serum SARS-yellow to linear peptides of protein M of SARS-CoV Urbani [3]
0.6: Binding of serum 37 to linear peptides of protein M of SARS-CoV Urbani [3] | Binding of serum 62 to linear peptides of protein M of SARS-CoV Urbani [3]
0.5: Binding of Control Serum Blood-Bank to Looped peptides of the protein M of SARS-CoV Urbani [2] | Binding of Control serum Blood-bank to linear peptides of the protein M of SARS-CoV Urbani [2] | Binding of serum 1a to looped/cyclic peptides of protein M of SARS-CoV Urbani [3] | Binding of serum 1b to looped/cyclic peptides of protein M of SARS-CoV Urbani [3] | Binding of serum 2 to linear peptides of protein M of SARS-CoV Urbani [3] | Binding of serum 6 to looped/cyclic peptides of protein M of SARS-CoV Urbani [3] | Binding of serum 37 to looped/cyclic peptides of protein M of SARS-CoV Urbani [3]
0.2: Rabbit serum linear peptides [1] | Binding of serum London to looped/cyclic peptides of protein M of SARS-CoV Urbani [3] | Binding of serum SARS-green to linear peptides of protein M of SARS-CoV Urbani [3]
0.7: Binding of Control serum LUMC to looped peptides of the protein M of SARS-CoV Urbani [2] | Binding of serum 1a to linear peptides of protein M of SARS-CoV Urbani [3] | Binding of serum SARS-yellow to looped/cyclic peptides of protein M of SARS-CoV Urbani [3]
